# Earlier results in US4294824A, “Extracts of the hemopoietic system” (priority 1975, dated 1981).
# Settings: lists continue in the following blocks
row,SMILES,SOME SIDE EFFECTS AND MAJOR TOXICITY
1,"O=P1(N(CCCl)CCCl)NCCCO1 (centres unmarked) [CYCLOPHOSPHAMIDE, cyclophosphamide]","Leucopenia, anorexia, nausea, vomiting. diarrhoea"
2,"Nc1ccn([C@@H]2O[C@H](CO)[C@@H](O)[C@@H]2O)c(=O)n1 [CYTOSINE ARABINOSIDE, cystosine arabinoside]","Myelosuppression, bone marrow depression, nausea"
3,"CC[C@]1(O)C[C@H]2CN(CCc3c([nH]c4ccccc34)[C@@](C(=O)OC)(c3cc4c(cc3OC)N(C=O)[C@H]3[C@@](O)(C(=O)OC)[C@H](OC(C)=O)[C@]5(CC)C=CCN6CC[C@]43[C@@H]65)C2)C1 [VINCRISTINE, vincristine]","Peripheral neuropathy, adynamic ileus, myopathy"
4,"COc1cccc2c1C(=O)c1c(O)c3c(c(O)c1C2=O)C[C@@](O)(C(C)=O)C[C@@H]3O[C@H]1C[C@H](N)[C@H](O)[C@H](C)O1 [DAUNORUBICIN, daunorubicin]","Myelosuppression, leucopenia, anaemia"
5,"CN(Cc1cnc2nc(N)nc(N)c2n1)c1ccc(C(=O)N[C@@H](CCC(=O)O)C(=O)O)cc1 [METHOTREXATE, methotrexate]","Myelosuppression, bone marrow depression, leucopenia"
